Data as given in PubChem BioAssay (NCI).
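Results reflect a 48-hour exposure of cells in 96-well plates to compound at five concentrations. Here, GI50 denotes the concentration required for 50% inhibition of growth. The concentration for full growth arrest is given as TGI.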

How the values were obtained:
Test in all cases: NCI anticancer screen, dose series, 48 h
OVCAR-3 ovarian = test system: OVCAR-3 ovarian
MDA-MB-435 = test system: MDA-MB-435
PC-3 prostate = test system: PC-3 prostate
SK-MEL-5 melanoma = test system: SK-MEL-5 melanoma
NCI-H460 lung = test system: NCI-H460 lung
U251 CNS = test system: U251 CNS
BT-549 breast = test system: BT-549 breast
MOLT-4 leukemia = test system: MOLT-4 leukemia
SN12C renal = test system: SN12C renal
SK-OV-3 ovarian = test system: SK-OV-3 ovarian

SMILES | TGI (OVCAR-3 ovarian) [µM] | TGI (MDA-MB-435) [µM] | TGI (PC-3 prostate) [µM] | TGI (SK-MEL-5 melanoma) [µM] | TGI (NCI-H460 lung) [µM] | TGI (U251 CNS) [µM] | TGI (BT-549 breast) [µM] | TGI (MOLT-4 leukemia) [µM] | TGI (SN12C renal) [µM] | TGI (SK-OV-3 ovarian) [µM] | GI50 (OVCAR-3 ovarian) [µM] | GI50 (SK-OV-3 ovarian) [µM] | GI50 (PC-3 prostate) [µM] | GI50 (SK-MEL-5 melanoma) [µM] | GI50 (NCI-H460 lung) [µM] | GI50 (U251 CNS) [µM] | GI50 (MOLT-4 leukemia) [µM] | GI50 (SN12C renal) [µM] | GI50 (MDA-MB-435) [µM] | GI50 (BT-549 breast) [µM]
COc1ccc2c(CC(=O)O)cc(=O)oc2c1 | > 100 | > 100 | > 100 | > 100 | > 100 | > 100 | > 100 | > 100 | > 100 | – | – | – | – | – | – | – | – | – | – | –
Nc1nc(=O)n(C2CC(O)C(O)C(CO)O2)cc1F (stereo unspecified) | > 100 | – | – | – | > 100 | > 100 | – | > 100 | > 100 | – | – | – | – | – | – | – | – | – | – | –
COCC1C(=O)c2cc3c(cc2C12C=CC1(C=C2)OCCO1)OCO3 (stereo unspecified) | 26.5 | – | – | – | 31.9 | 14 | – | 9.6 | 22.9 | 29.7 | – | – | – | – | – | – | – | – | – | –
COc1cc(-c2cc(/C=C/C(=O)c3ccc4c(c3)OCO4)[nH]n2)cc(OC)c1OC | 12.3 | – | 13.7 | > 100 | 5.1 | 5.45 | – | 9.15 | > 100 | 26.1 | 3.38 | 5.76 | 2.81 | 4.51 | 2.12 | 2.01 | 2.98 | 3.94 | – | –
CN(C)c1ccc(/C=C/C(=O)c2ccccc2)cc1Br | 35.5 | – | – | 39.1 | > 100 | 33.6 | – | 69 | 45.2 | > 100 | – | – | – | – | – | – | – | – | – | –
COc1ccc(NC(=O)CC/C(CC(=O)c2ccccc2Cl)=N\Nc2nnc(C)n2N)cc1 | – | – | – | – | > 100 | > 100 | – | > 100 | > 100 | > 100 | – | – | – | – | – | – | – | – | – | –
COc1ccc(C(=O)/C(=N/Nc2ccccc2)c2ccc(OC)cc2)cc1 | – | – | – | > 100 | > 100 | > 100 | – | > 100 | > 100 | > 100 | – | – | – | – | – | – | – | – | – | –
CCOC(=O)NC(=O)c1cn(CCCCCOC(=O)NCCCCCCNC(=O)OCCCCCn2cc(C(=O)NC(=O)OCC)c(=O)[nH]c2=O)c(=O)[nH]c1=O | > 100 | – | – | > 100 | > 100 | > 100 | – | > 100 | > 100 | > 100 | – | – | – | – | – | – | – | – | – | –
O=C1NC2OCC(O)C(O1)C2O (stereo unspecified) | > 100 | – | – | > 100 | > 100 | > 100 | – | > 100 | > 100 | > 100 | – | – | – | – | – | – | – | – | – | –
Cc1cc(Cl)ccc1NC(=O)/C(Cl)=C(/Cl)C(=O)O | 36.8 | 45.9 | 54.5 | > 100 | > 100 | 38.3 | 41.7 | – | 35 | > 100 | – | – | – | – | – | – | – | – | – | –
CCOC(=O)c1ccc2c(c1)[n+](=O)c(C(=O)c1ccc3ccccc3c1)c(C(F)(F)F)n2[O-] | 2.03 | 2.95 | 2 | 2.78 | 3.2 | 2.83 | 3.28 | – | 3.58 | 2.99 | 0.749 | 1.64 | 0.729 | 1.45 | 1.69 | 1.5 | – | 1.63 | 1.53 | 1.53
CSC(=S)N/N=C/c1ccccc1 | > 100 | > 100 | > 100 | > 100 | > 100 | > 100 | > 100 | – | > 100 | > 100 | – | – | – | – | – | – | – | – | – | –
CNc1nnnn1C1OC(CO)C(O)C1O (stereo unspecified) | > 100 | – | – | > 100 | > 100 | > 100 | – | > 100 | > 100 | > 100 | – | – | – | – | – | – | – | – | – | –
COC1OCC(OS(=O)(=O)c2ccc(C)cc2)C(OC(=O)c2ccccc2)C1OC(=O)c1ccccc1 (stereo unspecified) | 61.7 | 3.94 | > 100 | > 100 | > 100 | > 100 | > 100 | – | – | > 100 | 2.95 | 21.7 | 9.01 | 4.32 | 3.87 | 4.72 | – | – | 0.662 | > 100
O=C1CSC(=S)N1c1ccc(F)cc1F | > 100 | > 100 | > 100 | 54.6 | > 100 | > 100 | > 100 | – | > 100 | > 100 | – | – | – | – | – | – | – | – | – | –
O=C1OC(c2ccccc2)C2CC3CC4(CCC3CN12)OCCO4 (stereo unspecified) | > 100 | – | – | > 100 | > 100 | > 100 | – | > 100 | > 100 | > 100 | – | – | – | – | – | – | – | – | – | –
O=C(CC1(O)C(=O)Nc2c(Cl)cccc21)c1ccccc1 (stereo unspecified) | > 100 | – | – | > 100 | > 100 | > 100 | – | > 100 | > 100 | > 100 | – | – | – | – | – | – | – | – | – | –
O=C1C(c2ccc([N+](=O)[O-])cc2)=[N+]([O-])c2ccccc21 | 55.4 | – | – | 31.5 | > 100 | 36.3 | – | > 100 | 93.5 | > 100 | – | – | – | – | – | – | – | – | – | –
Cc1cc2c(cc1C)N1Cc3c(ccc(C)c3C)N(C2)C1 (tested in a mixture with another compound) | > 100 | – | – | > 100 | > 100 | > 100 | – | > 100 | – | > 100 | – | – | – | – | – | – | – | – | – | –
COc1ccc(C(=O)C(c2ccc(OC)cc2)C2C(=O)Oc3ccccc32)cc1 (stereo unspecified) | > 100 | – | – | > 100 | > 100 | – | – | > 100 | > 100 | > 100 | > 100 | > 100 | – | > 100 | > 100 | – | > 100 | > 100 | – | –
COc1c(OC(C)=O)c(OC(C)=O)cc2c1-c1ccc(OC)c(=O)cc1C(NC(C)=O)CC2 (stereo unspecified) | 0.071 | – | > 100 | 0.0264 | 13.1 | 9.24 | > 100 | > 85.8 | > 100 | > 48.1 | – | – | – | – | – | – | – | – | – | –
N#Cc1ccc(/C=N\N2C(=O)c3ccccc3C2=O)cc1 | > 100 | – | – | > 100 | > 100 | – | – | > 100 | > 100 | – | – | – | – | – | – | – | – | – | – | –
O=C(CCCCC(=O)N/N=C\c1ccccc1Cl)N/N=C\c1ccccc1Cl | 28.8 | – | > 100 | > 100 | > 100 | 21 | – | – | > 100 | – | 0.598 | – | 0.511 | 3.94 | 3.15 | 0.757 | – | 7.44 | – | –
O=c1oc2c3ccc4ccccc4c3n(CCN3CCOCC3)c2c2ccccc12 | > 100 | – | – | – | > 100 | – | – | 18.5 | – | > 100 | – | – | – | – | – | – | – | – | – | –
O=c1cc2n(c(=O)[nH]1)C1OC(C(O)C1O)[C@H]2CCO (stereo partly specified) | – | – | – | > 100 | > 100 | > 100 | – | > 100 | > 100 | > 100 | – | – | – | – | – | – | – | – | – | –
